# Laboratory results from patent publication US9868727B2, “Factor XIa inhibitors” (Merck Sharp & Dohme Corp., priority 2014, dated 2018).
# How the values were obtained:
# [1] = molecular target: T1, purified human Factor XIa (Homo sapiens, UniProt P03951); experiment: Factor XIa Assay; type: biochemical; conditions: fluorogenic substrate Z-Gly-Pro-Arg-AFC 100 μM, 40 pM enzyme, pH 7.4, read-out: F11a IC50
# T1 construct: purified human Factor XIa; purchased Sekisui Diagnostics
# Description: The effectiveness of a compound of the present invention as an inhibitor of Coagulation Factor XIa can be determined using a relevant purified serine protease, and an appropriate synthetic substrate. The rate of hydrolysis of the chromogenic or fluorogenic substrate by the relevant serine protease was measured both in the absence and presence of compounds of the present invention. Assays were conducted at room temperature or at 37° C. […] A decrease in the rate of fluorescence change in the presence of inhibitor is indicative of enzyme inhibition. Such methods are known to one skilled in the art. […]
# Factor XIa determinations were made in 50 mM HEPES buffer at pH 7.4 containing 150 mM NaCl, 5 mM CaCl2, and 0.1% PEG 8000 (polyethylene glycol; JT Baker or Fisher Scientific). Determinations were made using purified human Factor XIa at a final concentration of 40 pM (Sekisui Diagnostics) and he synthetic substrate, Z-Gly-Pro-Arg-AFC, TFA salt (Sigma #C0980) at a concentration of 100 μM.
# Activity assays were performed by diluting a stock solution of substrate at least tenfold to a final concentration ≦0.1 Km into a solution containing enzyme or enzyme equilibrated with inhibitor. Times required to achieve equilibration between enzyme and inhibitor were determined in control experiments. Initial velocities of product formation in the absence (VO) or presence of inhibitor (Vi) were measured. Assuming competitive inhibition, and that unity is negligible compared Km/[S], [I]/e, and [I]/e (where [S], [I], and e respectively represent the total concentrations, of substrate, inhibitor and enzyme), the equilibrium constant (Ki) for dissociation of the inhibitor from the enzyme can be obtained from the dependence of VO/Vi on [I] shown in the following equation.
# [2] = molecular target: T2, purified Human plasma kallikrein (Homo sapiens, UniProt P03952); experiment: Kallikrein Assay; type: biochemical; conditions: Plasma Kallekrein IC50; fluorogenic substrate Acetyl-K-P-R-AFC, 0.5 nM enzyme, pH 7.4; read-out: PK IC50
# T2 construct: yields a heavy chain (371 amino acids) and a light chain (248 amino acids); purchased Enzyme Research Laboratories
# T2 sequence (P03952 391-638 limits assumed): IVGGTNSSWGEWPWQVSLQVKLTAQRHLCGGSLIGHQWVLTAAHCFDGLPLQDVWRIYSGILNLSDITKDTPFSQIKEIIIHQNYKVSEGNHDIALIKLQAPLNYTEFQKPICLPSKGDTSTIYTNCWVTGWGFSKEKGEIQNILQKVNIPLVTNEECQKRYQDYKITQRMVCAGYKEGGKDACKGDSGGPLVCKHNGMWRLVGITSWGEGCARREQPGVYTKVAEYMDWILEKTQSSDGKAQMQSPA
# T2 sequence (P03952 20-390 partner limits assumed): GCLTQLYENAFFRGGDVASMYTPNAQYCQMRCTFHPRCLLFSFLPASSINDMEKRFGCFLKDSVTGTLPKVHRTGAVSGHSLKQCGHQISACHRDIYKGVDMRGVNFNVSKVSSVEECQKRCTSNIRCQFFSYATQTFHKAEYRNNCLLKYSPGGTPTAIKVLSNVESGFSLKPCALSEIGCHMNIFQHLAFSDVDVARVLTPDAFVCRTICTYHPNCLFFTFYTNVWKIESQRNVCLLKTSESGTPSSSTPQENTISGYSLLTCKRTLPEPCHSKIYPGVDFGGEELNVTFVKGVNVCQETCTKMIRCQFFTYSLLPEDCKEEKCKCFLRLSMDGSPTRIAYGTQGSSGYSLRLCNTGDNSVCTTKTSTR
# Description: The effectiveness of a compound of the present invention as an inhibitor of Kallikrein can be determined using a relevant purified serine protease, and an appropriate synthetic substrate. The rate of hydrolysis of the chromogenic or fluorogenic substrate by the relevant serine protease was measured both in the absence and presence of compounds of the present invention. Assays were conducted at room temperature or at 37° C. […] A decrease in the rate of fluorescence change in the presence of inhibitor is indicative of enzyme inhibition. Such methods are known to one skilled in the art. The results of this assay are expressed as the inhibitory constant, K1.
# Kallikrein determinations were made in 50 mM HEPES buffer at pH 7.4 containing 150 mM NaCl, 5 mM CaCl2, and 0.1% PEG 8000 (polyethylene glycol; Fisher Scientific). Determinations were made using purified Human plasma kallikrein at a final concentration of 0.5 nM (Enzyme Research Laboratories) and the synthetic substrate, Acetyl-K—P—R-AFC (Sigma # C6608) at a concentration of […].
# Times required to achieve equilibration between enzyme and inhibitor were determined in control experiments. The reactions were performed under linear progress curve conditions and fluorescence increase measured at 405 Ex/510 Em nm. […] IC50 was determined by inflection point from a four parameter logistic curve fit. Ki was calculated using the Cheng Prusoff equation, Ki=IC50/(1+([S]/Km)).
# T1 sequence (P03951 388-625 limits assumed): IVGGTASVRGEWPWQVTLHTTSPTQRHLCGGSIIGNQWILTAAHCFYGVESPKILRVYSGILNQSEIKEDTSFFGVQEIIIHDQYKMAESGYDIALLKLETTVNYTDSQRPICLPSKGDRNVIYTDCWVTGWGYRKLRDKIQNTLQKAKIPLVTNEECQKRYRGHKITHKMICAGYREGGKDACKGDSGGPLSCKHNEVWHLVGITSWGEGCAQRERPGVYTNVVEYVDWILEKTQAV
# T1 sequence (P03951 19-387 partner limits assumed): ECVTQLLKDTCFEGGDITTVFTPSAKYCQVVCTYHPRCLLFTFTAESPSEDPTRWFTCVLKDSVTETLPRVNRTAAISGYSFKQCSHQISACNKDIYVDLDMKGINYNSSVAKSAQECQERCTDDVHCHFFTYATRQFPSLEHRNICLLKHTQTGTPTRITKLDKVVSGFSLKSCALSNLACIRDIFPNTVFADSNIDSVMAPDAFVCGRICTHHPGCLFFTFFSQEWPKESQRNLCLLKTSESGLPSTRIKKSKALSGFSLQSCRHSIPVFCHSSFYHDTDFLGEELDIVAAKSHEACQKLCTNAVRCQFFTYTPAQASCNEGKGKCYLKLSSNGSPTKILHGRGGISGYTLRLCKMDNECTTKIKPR
IC50 [1],IC50 [2],Structure (SMILES)
72 nM,–,"Nc1ccc(-c2cnc(C(CC3CC3)c3ccc(-c4cc(Cl)ccc4-n4cnnn4)c[n+]3[O-])[nH]2)c(Cl)n1 (single isomer, unassigned) [Example 48, 6-chloro-5-[2-(1-{5-[5-chloro-2-(1H-tetrazol-1-yl)phenyl]-1-oxidopyridin-2-yl}-2-cyclopropylethyl)-1H-imidazol-5-yl]pyridin-2-amine]"
341 nM,–,"COC(=O)Nc1ccc(-c2c[nH]c(C(Cc3ccc(F)cc3)c3ccc(-c4cc(Cl)ccc4C(F)F)c[n+]3[O-])n2)cc1 (single isomer, unassigned) [Example 12, 5-(5-chloro-2-(difluoromethyl)phenyl)-2-(2-(4-fluorophenyl)-1-(4-(4-((methoxycarbonyl)amino)phenyl)-1H-imidazol-2-yl)ethyl)pyridine 1-oxide]"
204 nM,–,"O=C(O)c1cccc(-c2cnc(C(CC3CC3)c3ccc(-c4cc(Cl)ccc4-n4cnnn4)c[n+]3[O-])[nH]2)c1F (single isomer, unassigned) [Example 52, 3-[2-(1-{5-[5-chloro-2-(1H-tetrazol-1-yl)phenyl]-1-oxidopyridin-2-yl}-2-cyclopropylethyl)-1H-imidazol-5-yl]-2-fluorobenzoic acid]"
1000 nM,–,"COC(=O)c1scc(-c2cnc(C(CC3CC3)c3ccc(-c4cc(Cl)ccc4-n4cnnn4)c[n+]3[O-])[nH]2)c1F (single isomer, unassigned) [Example 62, Methyl 4-[2-(1-{5-[5-chloro-2-(1H-tetrazol-1-yl)phenyl]-1-oxidopyridin-2-yl}-2-cyclopropylethyl)-1H-imidazol-5-yl]-3-fluorothiophene-2-carboxylate]"
–,5.6 nM,"COC(=O)Nc1ccc(-c2c[nH]c(C(CC3CC3)c3ccc(-c4c(-n5cnnn5)ccc(Cl)c4F)c[n+]3[O-])n2)cc1 (single isomer, unassigned) [Example 64, 5-(3-chloro-2-fluoro-6-(1H-tetrazol-1-yl)phenyl)-2-(2-cyclopropyl-1-(4-(4-((methoxycarbonyl)amino)phenyl)-1H-imidazol-2-yl)ethyl)pyridine 1-oxide]"
11.9 nM,–,"COC(=O)Nc1ccc(-c2cnc(C(CC3CC3)c3ccc(-c4cc(Cl)ccc4-n4ccnn4)c[n+]3[O-])[nH]2)cc1 (racemic) [Example 65, 5-(5-Chloro-2-(1H-1,2,3-triazol-1-yl)phenyl)-2-(2-cyclopropyl-1-(5-(4-((methoxycarbonyl)amino)phenyl)-1H-imidazol-2-yl)ethyl)pyridine 1-oxide]"
71 nM,–,"O=C(O)c1cccc(-c2c[nH]c(C(CC3CC3)c3ccc(-c4cc(Cl)ccc4-n4cnnn4)c[n+]3[O-])n2)c1 (single isomer, unassigned) [Example 54]"
289 nM,–,"COC(=O)Nc1ccc(-c2c[nH]c(C(Cc3ccccc3)c3ccc(-c4c(F)ccc(Cl)c4F)c[n+]3[O-])n2)cc1 (single isomer, unassigned) [Example 6]"
59.9 nM,–,COC(=O)Nc1ccc(-c2c[nH]c(C(Cc3ccc(F)cc3)c3ccc(-c4c(C#N)ccc(Cl)c4F)c[n+]3[O-])n2)cc1 (racemic) [Example 14]
834 nM,–,COC(=O)Nc1ccc(-c2cnc(C(CC3CC3)c3ccc(-c4cc(Cl)ccc4-c4cocn4)c[n+]3[O-])[nH]2)cc1 (racemic) [Example 71]
266 nM,–,"N#Cc1ccc(-c2cnc(C(CC3CC3)c3ccc(-c4cc(Cl)ccc4-n4cnnn4)c[n+]3[O-])[nH]2)cc1 (single isomer, unassigned) [Example 30, 4-[2-(1-{5-[5-chloro-2-(1H-tetrazol-1-yl)phenyl]-1-oxidopyridin-2-yl}-2-cyclopropylethyl)-1H-imidazol-5-yl]benzonitrile]"
34.2 nM,–,COC(=O)Nc1ccc(-c2c[nH]c(C(Cc3ccc(F)cc3)c3ccc(-c4cc(Cl)ccc4OC(F)F)c[n+]3[O-])n2)cc1 (racemic) [Example 15]
11 nM,–,COC(=O)Nc1ccc(-c2cnc(C(CC3CC3)c3ccc(-c4cc(Cl)ccc4-n4cc(C(F)F)nn4)c[n+]3[O-])[nH]2)cc1 (racemic) [Example 74]
74.8 nM,–,"COC(=O)Nc1ccc(-c2cnc(C(CC3CC3)c3ccc(-c4cc(Cl)ccc4-n4cnnn4)c[n+]3[O-])[nH]2)c(F)c1 (single isomer, unassigned) [Example 37]"
1000 nM,–,"[O-][n+]1cc(-c2cc(Cl)ccc2-n2cnnn2)ccc1C(CC1CC1)c1ncc(-c2cccc(F)c2)[nH]1 (single isomer, unassigned) [Example 31]"
1000 nM,–,COC(=O)Nc1ccc(-c2cnc(C(CC3CC3)c3ccc(-c4cc(Cl)ccc4-n4cccn4)c[n+]3[O-])[nH]2)cc1 (racemic) [Example 73]
12.9 nM,–,"COC(=O)Nc1ccc(-c2cnc(C(CC3CC3)c3ccc(-c4cc(Cl)ccc4-n4cnnc4)c[n+]3[O-])[nH]2)cc1 (racemic) [Example 66, 5-(5-chloro-2-(4H-1,2,4-triazol-4-yl)phenyl)-2-(2-cyclopropyl-1-(5-(4-((methoxycarbonyl)amino)phenyl)-1H-imidazol-2-yl)ethyl)pyridine 1-oxide]"
110 nM,–,"NC(=O)c1scc(-c2cnc(C(CC3CC3)c3ccc(-c4cc(Cl)ccc4-n4cnnn4)c[n+]3[O-])[nH]2)c1F (single isomer, unassigned) [Example 59, 2-(1-(5-(5-carbamoyl-4-fluorothiophen-3-yl)-1H-imidazol-2-yl)-2-cyclopropylethyl)-5-(5-chloro-2-(1H-tetrazol-1-yl)phenyl)pyridine 1-oxide]"
271 nM,–,COC(=O)Nc1ccc(-c2cnc([C@@H](Cc3ccccc3)c3ccc(-c4cc(Cl)ccc4-c4cnco4)c[n+]3[O-])[nH]2)cc1 [Example 26]
593 nM,–,"O=C(O)c1ccc(-c2cnc(C(CC3CC3)c3ccc(-c4cc(Cl)ccc4-n4cnnn4)c[n+]3[O-])[nH]2)cc1 (single isomer, unassigned) [Example 55]"
931 nM,–,COC(=O)Nc1ccc(-c2cnc(C(CC3CC3)c3ccc(-c4cc(Cl)ccc4-n4cc(C(F)F)cn4)c[n+]3[O-])[nH]2)cc1 (racemic) [Example 75]
2.91 nM,–,CC(C)OC(=O)Nc1ccc(-c2cnc(C(CC3CC3)c3ccc(-c4cc(Cl)ccc4-n4cnnn4)c[n+]3[O-])[nH]2)cc1 (racemic) [Example 46]
1000 nM,–,"N#Cc1cccc(-c2cnc(C(CC3CC3)c3ccc(-c4cc(Cl)ccc4-n4cnnn4)c[n+]3[O-])[nH]2)c1 (single isomer, unassigned) [Example 35]"
311 nM,–,"N#Cc1ccc(-c2c[nH]c(C(Cc3ccc(F)cc3)c3ccc(-c4cc(Cl)ccc4-n4cnnn4)c[n+]3[O-])n2)cc1 (single isomer, unassigned) [Example 19]"
128 nM,–,"[O-][n+]1cc(-c2cc(Cl)ccc2-n2cnnn2)ccc1C(Cc1ccc(F)cc1)c1nc(-c2ccc(Cl)cc2)c[nH]1 (single isomer, unassigned) [Example 21]"
54.4 nM,–,"COC(=O)Nc1ccc(-c2[nH]c(C(CC3CC3)c3ccc(-c4cc(Cl)ccc4-n4cnnn4)c[n+]3[O-])nc2Cl)cc1 (single isomer, unassigned) [Example 78, 5-(5-chloro-2-(1H-tetrazol-1-yl)phenyl)-2-(1-(4-chloro-5-(4-((methoxycarbonyl)amino)phenyl)-1H-imidazol-2-yl)-2-cyclopropylethyl)pyridine 1-oxide]"
1000 nM,–,"COC(=O)Nc1ccc(-c2cnc(C(CC3CC3)c3ccc(-c4cc(Cl)ccc4-c4cnco4)c[n+]3[O-])[nH]2)cc1 (single isomer, unassigned) [Example 70]"
631 nM,–,COC(=O)Nc1ccc(-c2cnc(C(CC3CC3)c3ccc(-c4cc(Cl)ccc4-n4cncn4)c[n+]3[O-])[nH]2)cc1 (racemic) [Example 68]
